# Test results taken from a melting point compilation (Tetko et al.; mined from patent text by program, amines drawn as free bases though some values may be those of a salt).
row,melting point,Compound
1,184 to 185 °C,Cc1cccc(C)c1NC(=O)CN1CCNC(C)C1c1ncnc2sccc12 (stereo not drawn)
2,105 to 107 °C,COC(=O)c1cccc(OCCN2CCN(c3cc(Cl)nnc3Cl)CC2)c1
3,35 to 39 °C,C=CCC(O)c1ccc2ccccc2c1 (stereo not drawn)
4,123 to 124 °C,O=C(Nc1cccc(C(F)(F)F)c1)c1cccc2cc(Oc3cc(COCc4ccccc4)ncn3)ccc12
5,89 to 90 °C,CC1(C)CC(SCc2c(C(F)(F)F)nn(-c3ccccc3)c2Cl)=NO1
6,60 to 62 °C,CN(C)CCCn1nc2c(c1-c1ccccc1)CCc1ccccc1-2
7,245 to 247 °C,COc1ccccc1NC(=O)Nc1nc(Nc2ccccc2-c2ccccc2)nc(N2CCCC(C(=O)O)C2)n1 (stereo not drawn)
8,181 to 186 °C,CN1CCCC2(OCCO2)C1Cc1cccc2[nH]ccc12 (stereo not drawn)
9,149 to 150 °C,CN1C(=O)C2(COc3cc4c(cc32)OCCO4)c2c(C(=O)NCc3ccc(F)cc3)cccc21 (stereo not drawn)
10,155 °C,COc1ccc(C(=O)C(N=C=S)c2ccc(OC)cc2)cc1 (stereo not drawn)
11,98 to 99 °C,c1ccc2c3c([nH]c2c1)C(c1ccc2c(c1)CCO2)NCC3 (stereo not drawn)
12,167 to 169 °C,C[C@@]1(CN2CCN(C(=O)OCc3ccc(F)cc3)CC2)Cn2cc([N+](=O)[O-])nc2O1
13,43 to 44 °C,C=C(C(=C)c1cc(C)sc1C)c1cc(C)sc1C
14,104 to 107 °C,NC(=O)c1sc2nccc(N3CCCN(c4ccc5c(c4)OCCO5)CC3)c2c1N
15,153 to 154 °C,COCOc1c(C)cc(-c2ccc(C(=O)O)cc2)cc1C
16,77 to 83 °C,O=c1oc2c(c(O)c1C(c1ccccc1)C1CC1)CCCCC2CC1CC1 (stereo not drawn)
17,92 to 95 °C,CC(=O)OC(c1cccc(Cl)c1Cl)C(Cl)(Cl)C(F)(F)F (stereo not drawn)
18,110 to 120 °C,COC1(OC)C(=O)NC(Nc2ncnc3c2ncn3C2OC(CO)C(O)C2O)C1Cl (stereo not drawn)
19,70 to 71 °C,O=C(O)CCCc1ccc(CCNS(=O)(=O)c2ccccc2)cc1
20,168 to 169 °C,O=C(O)C1Cc2c(c(Cl)cc3c(-c4cccc(Cl)c4)noc23)O1 (stereo not drawn)
21,99 to 100 °C,CC(C)C[C@H](NC(=O)OCc1ccccc1)C(=O)N[C@@H](Cc1ccccc1)C(=O)CN1CCN(C)CC1
22,155 °C,O=C1Nc2ccc(F)cc2C(C#CC2CC2)(C(F)(F)F)N1 (racemic)
23,105 to 106 °C,C=C(CCC)C(=O)c1ccc(OC2(C(=O)O)CCC2)c(Cl)c1Cl

row,melting point,Compound
1,> 300 °C,CC(=O)Nc1cccc(Nc2ncnc3[nH]cc(C(=O)c4cccc(F)c4)c23)c1
2,166 to 169 °C,CC(C)Cn1c(=O)n(C)c(=O)c2c(SC(C)C)c(C(=O)c3nc4ccccc4n3C)sc21
3,192 °C,CS(=O)(=O)c1ccc(-c2ccc(Cl)nc2-c2ccc(F)cc2)cc1
4,> 200 °C,CN1CCN(S(=O)(=O)NC(Cc2ccccc2)C(=O)O)CC1 (stereo not drawn)
5,231 to 233 °C,COC(=O)C1=C(C)NC(CO)=C(C(=O)OC)C1c1cccc2c(=O)c(C)c(-c3ccccc3)oc12 (stereo not drawn)
6,62 to 63.5 °C,COc1ccc(S(=O)(=O)c2cnoc2C(C)C)cc1
7,185 °C,CC(C)(C)c1cc([PH](=O)c2cc(C(C)(C)C)cc(C(C)(C)C)c2)cc(C(C)(C)C)c1
8,108 to 109 °C,CC(=O)Oc1c(C)c(CCl)nc2ccccc12
9,79 °C,N#CC1(c2ccncc2)CCCCC1
10,216 °C,CC12CC(c3ccc(N)cc3)(C1)C(=O)NC2=O
11,73 °C,CCCCCCCCCCCCC1CC(=O)CCC1=O (stereo not drawn)
12,163 °C,Oc1ccc2c(c1)CCCC(c1ccccc1)=C2c1ccc(OCCCCCSCCCCF)cc1
13,224 to 226 °C,CNC1C(C)CN(c2c(F)c(N)c3c(=O)c(C(=O)O)cn(C4CC4)c3c2OC)CC1C (stereo not drawn)
14,148 to 149 °C,CC1(C)NC(=O)N(c2ccc(Cl)c(C(F)(F)F)c2)C1=N
15,118 to 120 °C,CCOC(=O)Cn1c2c(c3c(Cl)ccc(Cl)c31)CCN(C(=O)OC(C)(C)C)CC2
16,134 to 136 °C,Cc1ccc2ccc(C#N)cc2c1
17,289 °C,CN=C(NC#N)Nc1ccc2c(c1)CCC1CC(=O)NN=C21 (stereo not drawn)
18,231 to 232 °C,CCCOc1ccc(/C=C/C(=O)O)cc1-c1nc2c(c(C)nn2CCC)c(=O)[nH]1
19,178 °C,COc1ccc2cccc(N3C(=O)CN(Cc4ccccc4)CC3=O)c2c1
20,131 to 132 °C,CCCc1nc2c(N)nc3ccccc3c2n1CCOCCCCl
21,98 to 100 °C,O[C@@H]1CN(Cc2ccccc2)C[C@H]1Oc1ccc(OCc2ccccc2)cc1 (relative stereo)
22,141 to 144 °C,CN(C)CCOc1ccc(C(=O)c2c(-c3ccc(O)cc3)sc3cc(O)ccc23)cc1
23,186 to 187 °C,Cc1c(CO)nc2c(NC(=O)C(C)(C)C)cccn12

row,melting point,Compound
1,89 to 90 °C,CCCCCCC#Cc1ccc(/C=C(/C(=O)O)C(=O)OCC)o1
2,> 280 °C,Oc1ccc(-c2cc(S)n3nccc3n2)cc1O
3,203 to 206 °C,O=C1C(=O)N2c3ccccc3Sc3cccc1c32
4,107 to 110 °C,CCOC(=O)NC(=S)Nc1cc(Br)ccn1
5,106 to 107 °C,CCOC(=O)CNC(=O)CCCCCNC(=O)c1ccc(OC)cc1
6,79 °C,COC(=O)Cc1ccc(OCc2ccc3ccccc3n2)c(Cl)c1
7,193 to 196 °C,Cc1oc(-c2ccccc2)nc1COc1ccc(Cc2nc(-c3ccccc3)c(CCC(=O)O)[nH]2)cc1
8,60.9 to 61.8 °C,CCCCc1cnc(-c2ccc(C#N)cc2)nc1
9,256 to 259 °C,CN1C(=O)COc2c(C(=O)O)cc([N+](=O)[O-])cc21
10,193 to 198 °C,COc1cc(Nc2c(C#N)cnc3cc4cc(OCCN5CCC(O)CC5)c(OC)cc4cc23)c(Cl)cc1Cl
11,169 to 170 °C,O=S(=O)(Nc1ccc2c(OCc3ccc(-c4ccc(Cl)c(Cl)c4)cc3Cl)cccc2c1)C(F)(F)F
12,34 to 36 °C,CCOC(=O)C(Cc1ccc(OCc2ccccc2)cc1)Oc1ccc(OC(F)(F)F)cc1 (stereo not drawn)
13,135 to 136 °C,COc1ccc(NC2C=CC3=Nc4ccccc4SC3=C2)cc1 (stereo not drawn)
14,197 to 199 °C,COc1ccc2c(c1)c(=O)oc1c(C(C)=O)c(O)ccc12
15,118 to 120 °C,CC(OCCO)n1cc(F)c(=O)[nH]c1=O (stereo not drawn)
16,130 to 131 °C,COc1cc2c(c3c1OC1(CCCC1)C3)C(c1ccccc1)=NC(C)(C)C2
17,145 to 146 °C,COc1ccc(SC2CC(=O)N2)cc1OC (stereo not drawn)
18,128 to 129 °C,CN(C)c1ccc(-c2cc(-c3ccccc3)nc(-c3ccccc3)c2)cc1
19,150 to 152 °C,CNC(=O)C(CCCl)(c1ccccc1)c1ccccc1
20,220 to 223 °C,CC1(C)CC(=O)c2c(SCc3ccccc3)c[nH]c2C1
21,94 to 100 °C,COc1nc(NC(=N)SC)nc(OC)n1
22,179 to 180 °C,O=C(Nc1c[nH]nc1C(=O)NCCCc1ccccc1)c1ccccn1

row,Compound,melting point
1,COc1ccc(C(=O)CI)cc1,63 to 65 °C
2,O=C(NC1N=C(c2ccccc2F)c2ccccc2NC1=O)c1cc2ccccc2[nH]1 (racemic),290 to 291 °C
3,CN1C(=O)[C@H](NC(=O)CCc2cccc(Cl)c2)N=C(c2ccccc2)c2ccccc21,157 to 159 °C
4,Cc1c(C2CCC(c3ccccc3)(N(C)C)CC2)[nH]c2ccc(F)cc12 (stereo not drawn),199 to 205 °C
5,CCC1(C)CCNC1=O (stereo not drawn),39 to 40 °C
